In patent US6297257A, “Benzazine derivatives phosphodiesterase 4 inhibitors” (Zambon Group S.p.A., priority 1997, dated 2001):
Where a name gives a salt, the structure may show the parent alone.

Assays:
[1] = tested on: TNFα; assay: TNFα Synthesis Inhibition (LPS-induced, human monocytes, ELISA); assay type: cell-based; conditions: Monocyte, LPS 1 ng/ml, 16 hours at 37° C.
Method: TNFα Inhibition Test a) Human Monocytes Isolation The monocytes were isolated from peripheral blood of healthy volunteers according the procedure of […]. Natl. Cancer Inst., 1964, 32, 507. The monocytes and lymphocytes population was isolated by Ficoll gradient centrifugation, and the cells diluted at a density of 2.5×10^6 cells/ml in RPMI1640 incubation containing 1% inactivated bovine fetal serum, penicillin (100 U/ml) and streptomycin (100 U/ml) were placed in 24-wells plates (1 ml/well) and left to adhere for 1 hour at 37° C. with 5% CO2. At the end of the incubation the lymphocytes not adhering were removed by aspiration and the monocytes adhered to the plate were used in the next step. b) TNFα Synthesis Inhibition The TNFα synthesis from human monocytes was measured according to the method of Barnette M. et al., Biochemical Pharmacology, 1996, 51, 949. The monocytes were incubated for 1 hour with 1 ml of RPMI1640 incubation medium (1% inactivated bovine serum, 100 U/ml penicillin and streptomycin) containing different concentrations of the products according to the present invention or the carrier only for the controls. The TNFα synthesis from monocytes was induced by adding 1 ng/ml of LPS (lipopolysaccharide of E. Coli) and after 16 hours of incubation at 37° C., 5% CO2, the incubation medium was removed, and the surnatant stored at -80° C. until the measurement. The TNFα levels were determined by ELISA test with an Amersham kit. The results are set forth in Table 2 as IC50 measured with the same calculation of example 53.

[2] = tested on: PDE 4; assay: PDE 4 Enzyme Inhibition (SPA); assay type: biochemical; conditions: enzyme from human PMNs, cAMP 1 μM; for IC50: 40 minutes at 30° C.
Source text: PDE 4 Enzyme Inhibition Study a) Purification of Human Polymorphonucleate Leukocytes The polymorphonucleate leukocytes (PMNs) were isolated from peripheral blood of healthy volunteers according to what described by Boyum A., Scand. J. Immunol., 1976, 50 suppl., 9). Shortly, the isolation of the PMNs was effected by Ficoll-Paque gradient centrifugation followed by sedimentation on dextrane and the erythrocyte contanunation was eliminated by hypotonic lysis. b) PDE 4 Enzyme Purification The human PMNs were re-suspended in TRIS/HCl buffer (10 mM pH 7.8) containing MgCl2 (5 mM), EGTA (4 mM), mercaptoethanol (5 mM), TRITON-X100 (1%), pepstatin A (1 μM), PMSF (100 μM) and leupeptin (1 μM), and homogenized by Polytron. The homogenate was centrifuged at 25,000×g per 30 minutes at 4° C. and the sumatant was used for the PDE 4 enzyme purification by ion exchange chromatography using the FPLC technique according to what described by Schudt C. et al., Naunyn-Schmidberg's Arch. Pharmacol., 1991, 334, 682. The surnatant was seeded on a UNO Q12 column (Bio-Rad) and the enzyme was eluted by sodium acetate gradient from 50 mM to 1M. The fractions containing enzymatic activity were joined, dialysed against water and concentrated. The resulting PDE 4 enzyme was stored at -20° C. in the presence of ethylenglycole (30%) v/v) till the use c) PDE 4 Enzyme Inhibition The enzyme activity was evaluated with an Amersham kit based on the SPA technique (Scintillation Proximity Assay). The enzymatic reaction was effected in a total volume of 100 μl of TRIS/HCl buffer (50 mM, pH7.5), MgCl2, (8.3 mM), EGTA (1.7 mM), cAMP (1 μM) and [^3 H]cAMP (~100.000 dpm). The compounds of the invention were added at the wanted concentrations. The reaction was started by adding the enzyme (15 μg protein/ml) in 40 minutes at 30° C. and stopped by adding 50 μl of suspension of SPA particles. The radioactivity due to the particles was measured in β-emitting counter. The IC50 values were calculated on 9 equidistant concentrations in logarithmic scale using a 4-parameters logistic function by a software.

[3] = molecular target: T1, PDE 5 (Homo sapiens, UniProt O76074); assay: PDE 5 Enzyme Inhibition Test (SPA); assay type: biochemical; conditions: enzyme from human platelets; cGMP 1 μM; head prints (μM), no concentration figure
T1 construct: from tissue; host or cells: human platelets from platelet rich plasma
Method: (§1) PDE 3 and 5 Enzymes Inhibition Test a) Human Platelet Preparation
(§2) Human platelets were prepared from platelet rich plasma (PRP) obtained from the Hematological Dept. of the "L. Sacco" Hospital of Milan. […]
(§3) b) Purification of PDE 3 and PDE 5 with Fast Protein Liquid Chromatography (FPLC) Before the chromatographic step, platelets were thawed and 50 ml of 20 mM TRIS (pH=6.5) containing 5 mM β-mercapto-ethanol, 2 mM EDTA, 50 mM sodium acetate and 50 μM PMSF (homogenization buffer) were added. The platelet suspension was then homogenized by a Polytron homogenizer (Polytron PT 1200) for 20 seconds. The homogenate was centrifuged at 14,500 rpm for 20 minutes at 4° C., and the supernatant was applied to a UNO Q12 column (Bio-Rad) pre-equilibrated with the PMSF. A flow rate of 4.5 ml/min was used throughout the ion exchange chromatography procedure. The column was washed with PMSF (180 ml) and PDE 3 and PDE 5 were eluted by sodium acetate linear gradient from 0.05M to 1M. The fractions containing enzymatic activity were joined, dialyzed against water and concentrated 10 times by ultrafiltration. The resulting solution was stored at -20° C. in the presence of ethylenglycole (30%) v/v) until use. […]
(§4) c) Assay of Phoshodiesterase Activity
(§5) The enzyme activity was assessed with an Amersham kit based on the SPA technique (Scintillation Proximity Assay). The enzymatic reaction was effected in a total volume of 100 μl of TRIS/HCl buffer (50 mM, pH7.5), MgCl2 (8.3 mM), EGTA (1.7 mM), cAMP (for PDE 3 assay) or cGMP (for PDE 5 assay) (1 μM), [^3 H]cAMP or [^3 H]cGMP (10 μl), and 10 μl of the compounds of the invention. The reaction was started by adding the enzyme (10 μl) incubated for 40 minutes at 30° C. and stopped by adding 50 μl of SPA beads. The radioactivity due to the particles was measured in β-emitting counter. The results are expressed as percent activity versus the control present in each test.

[4] = molecular target: T2, PDE 3 (Homo sapiens, UniProt Q14432); assay: PDE 3 Enzyme Inhibition Test (SPA); assay type: biochemical; conditions: enzyme from human platelets; cAMP 1 μM; head prints (μM), no concentration figure
T2 construct: the supernatant was applied to a UNO Q12 column (Bio-Rad); from tissue; host or cells: human platelets from platelet rich plasma
Method: as §1, §2, §3, §4, §5

T2 sequence (Q14432 whole entry): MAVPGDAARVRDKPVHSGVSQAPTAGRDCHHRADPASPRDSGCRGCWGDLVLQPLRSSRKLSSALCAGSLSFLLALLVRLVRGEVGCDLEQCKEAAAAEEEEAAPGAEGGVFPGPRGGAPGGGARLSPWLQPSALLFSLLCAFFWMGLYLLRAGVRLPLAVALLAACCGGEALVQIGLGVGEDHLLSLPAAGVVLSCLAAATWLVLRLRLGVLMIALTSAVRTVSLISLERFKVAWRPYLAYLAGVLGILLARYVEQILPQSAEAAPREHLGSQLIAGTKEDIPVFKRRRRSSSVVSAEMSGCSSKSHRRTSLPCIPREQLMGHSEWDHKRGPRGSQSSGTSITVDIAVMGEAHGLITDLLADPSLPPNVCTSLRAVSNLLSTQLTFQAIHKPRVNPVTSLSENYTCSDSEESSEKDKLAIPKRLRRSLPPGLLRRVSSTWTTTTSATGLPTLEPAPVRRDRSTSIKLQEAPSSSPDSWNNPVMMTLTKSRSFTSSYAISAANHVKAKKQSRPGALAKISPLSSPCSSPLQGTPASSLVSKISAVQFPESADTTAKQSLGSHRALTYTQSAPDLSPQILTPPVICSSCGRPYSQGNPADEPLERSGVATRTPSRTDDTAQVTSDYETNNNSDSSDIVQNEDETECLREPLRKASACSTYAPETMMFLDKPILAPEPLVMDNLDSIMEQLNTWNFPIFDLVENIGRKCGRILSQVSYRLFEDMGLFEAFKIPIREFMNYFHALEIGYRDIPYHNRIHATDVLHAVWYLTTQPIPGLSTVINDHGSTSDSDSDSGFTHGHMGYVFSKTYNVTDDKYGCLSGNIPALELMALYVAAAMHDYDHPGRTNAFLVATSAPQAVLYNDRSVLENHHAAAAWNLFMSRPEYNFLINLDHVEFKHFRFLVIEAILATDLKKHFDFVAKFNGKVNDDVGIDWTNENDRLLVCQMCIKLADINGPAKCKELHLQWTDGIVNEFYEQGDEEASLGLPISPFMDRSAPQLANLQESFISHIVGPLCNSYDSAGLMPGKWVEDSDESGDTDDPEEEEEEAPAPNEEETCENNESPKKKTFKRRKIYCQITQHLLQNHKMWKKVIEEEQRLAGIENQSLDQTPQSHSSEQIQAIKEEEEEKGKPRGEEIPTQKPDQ

| Structure (SMILES) | IC50 [1] [nM] | PDE 4 % inhibition ([2]; 10^-5 M) [%] | PDE 4 % inhibition ([2]; 10^-6 M) [%] | IC50 [2] [nM] | PDE 5 % inhibition (μM) [3] [%] | PDE 3 % inhibition (μM) [4] [%] |
| --- | --- | --- | --- | --- | --- | --- |
| COc1ccc2c(c1OC1CCCC1)CCN=C2Cc1c(Cl)cncc1Cl [Compound 1, 5-Cyclopentyloxy-1-(3,5-dichloro-2-pridin-4-yl-methyl)-6-methoxy-3,4-dihydro-isoquinoline Hydrochloride] | 252 ± 67 | 96 | 79 | 148 ± 18 | 10 | 0 |
| COc1cc2c(cc1OC1CCCC1)C(Cc1c(Cl)cncc1Cl)=NCC2.Cl [Compound 2, 7-Cyclopentyloxy-1-(3,5-dichloro-pyridin-4-yl-methyl)-6-methoxy-3,4-dihydro-isoquinoline Hydrochloride] |  | 88 | 54 | 1050 ± 191 |  |  |
| COc1ccc2c(c1OCCCCCc1ccccc1)CCN=C2Cc1c(Cl)cncc1Cl.Cl [Compound 3, 1-(3,5-Dichloro-pyridin-4-yl-methyl)-5-(5-phenylpentyloxy)-6-methoxy-3,4-dihydro-isoquinoline Hydrochloride] | 83 ± 16 |  | 93 | 87.5 ± 17 | 12 | 24 |
| COc1ccc2c(c1OCCCCCc1ccccc1)CCNC2Cc1c(Cl)cncc1Cl.Cl.Cl (centres unmarked) [Compound 4, 1-(3,5-dichloro-pyridin-4-yl-methyl)-5-(5-phenylpentyloxy)-6-methoxy-1,2,3,4-tetrahydro-isoquinoline Dihydrochloride] |  |  | 54 |  |  |  |
| COC(=O)c1c(Cc2c(Cl)cncc2Cl)c2ccc(OC)c(OC3CCCC3)c2[nH]c1=O [Compound 8, 8-Cyclopentyloxy-4-(3,5-dichloro-pyridin-4-yl-methyl)-7-methoxy-2-oxo-1,2-dihydro-quinolin-carboxylic Acid Methyl Ester] |  |  | 60 |  |  |  |
| COc1cc2[nH]cc(-c3c(Cl)cncc3Cl)c(=O)c2cc1OC1CCCC1 [Compound 10, 6-Cyclopentyloxy-3-(3,5-dichloro-pyridin-4-yl)-7-methoxy-1H-quinolin-4-one] |  |  | 73 |  |  |  |
| COc1cc2c(cc1OC1CCCC1)C(=O)C(c1c(Cl)cncc1Cl)CN2 (centres unmarked) [Compound 12, 6-Cyclopentyloxy-3-(3,5-dichloro-pyridin-4-yl)-7-methoxy-2,3-dihydro-1H-quinolin-4-one] | 78.7 ± 16 | 100 | 94 | 101 ± 21 | 10 | 12 |
